From US8952025B2, “Multifunctional radical quenchers and their uses” (Arizona Board of Regents, A Body Corporate of the State of …, priority 2010, dated 2015)

Legend:
cultured FRDA cells = experiment: Cytoprotection of cultured FRDA cells depleted of glutathione; assay type: cell-based; details: pretreated then depleted of glutathione, read-out: Viable Cells (%)
Text: The cells were pretreated with the compounds and then depleted of glutathione. The cell viability is expressed as percentage of total number of cells.

[1] = system: NADH oxidase, bovine heart mitochondrial complex (I, III, IV); experiment: NADH oxidase inhibition assay, submitochondrial particles; assay type: biochemical; details: for NADH oxidase activity (%): percentage of control
Method: Beef heart mitochondria were obtained by a large-scale procedure. Inverted submitochondrial particles (SMP) were prepared by the method of Matsuno-Yagi and Hatefi (J. Biol. Chem. 260 (1985), p. 14424), and stored in a buffer containing 0.25 M sucrose and 10 mM Tris-HCl (pH 7.4) at −80° C. Inhibitory effects of compounds on bovine heart mitochondrial complex (I, III, IV) were evaluated. Maximal dimethyl sulfoxide concentration never exceeded 2% and had no influence on the control enzymatic activity. Beef heart SMP were diluted to 0.5 mg/mL. The enzymatic activities were assayed at 30° C. and monitored spectrophotometrically with a Beckman Coulter DU-530 (340 nm, c=6.22 mM^−1 cm^−1). NADH oxidase activity was determined in a reaction medium (2.5 mL) containing 50 mM Hepes, pH 7.5, containing 5 mM MgCl2. The final mitochondrial protein concentration was 30 μg. After the pre-equilibration of SMP with inhibitor for 5 min, the initial rates were calculated from the linear portion of the traces.
The activity is expressed as percentage of control.

[2] = system: CoQ10 deficient lymphocyte cell line; experiment: Total intracellular ATP concentration assay (luciferin-luciferase); assay type: cell-based, human; details: 48 h, glucose free media with galactose
Text: The reductions of mitochondrial respiratory chain activity in CoQ10 deficient patients have been reported (Quinzii G M, Lopez L C, Von-Moltke J, Naini A, Krishna S, Schuelke M, Salviati L, Navas P, DiMauro S, and Hirano, M. Respiratory chain dysfunction and oxidative stress correlate with severity of primary CoQ10 deficiency. FASEB J. 2008; 22:1874-1885). The use of CoQ10 analogues to normalize and restore the respiratory chain activities could provide valuable therapeutic approach. We have evaluated the efficiency of oxidative phosphorylation in CoQ10 deficient lymphocyte (GM17932) in presence of tested CoQ10 analogues by measuring total cellular ATP content using (ViaLight® Plus ATP monitoring reagent kit, Lonza).
CoQ10 deficient lymphocyte and normal lymphocyte cell lines were obtained from Coriell Cell Repositories (Camden, N.J.; catalog number GM-17932, GM-158151, respectively). CoQ10 deficient lymphocytes were cultured under glucose-free media supplemented with galactose for two weeks to force energy production predominantly through oxidative phosphorylation rather than glycolysis (Quinzii et al.; Robinson B H, Petrova-Benedict R, Buncic J R, Wallace D C. Nonviability of cells with oxidative defects in galactose medium: A screening test for affected patient fibroblast. Biochem. Med. Metab. Biol. 1992; 48:122-126). Lymphocytes were cultured in RPMI 1640 medium glucose-free (Gibco, Grand Island, N.Y.) supplemented with 25 mM galactose, 2 mM glutamine and 1% penicillin-streptomycin (Cellgro), and 10%, dialyzed fetal bovine serum FBS 0.5 μg/mL) (GEMINI, Bio-Product), Briefly, lymphocytes (2×10^5 cell/mL), were plated (1 mL in 12-well plates) and treated with the test compounds at final concentrations of 5, 10 μM, and 25 μM and incubated at 37° C. for 48 h in a humidified atmosphere containing 5% CO2 in air. The test compounds were prepared by first making 20 mM stock solutions in DMSO. Cells were transferred (100 μL) to 96-well microtiter black-walled cell culture plates (Costar, Corning, N.Y.). The total intracellular ATP level was measured in a luminator (Clarity™ luminescence microplate reader) with the ATP Bioluminescence Assay Kit (ViaLight® Plus ATP monitoring reagent kit, Lonza) following the manufacturer's instructions. The standard curve of ATP was obtained by serial dilution of 1 mM ATP solution. After calibration against the ATP standard, the ATP content of the cell extract was determined and normalized for protein content in the cell.
To enforce the respiratory chain-dependent ATP synthesis, cells were grown for 48 hours in glucose free media supplemented with 25 mM galactose and 10% dialyzed fetal bovine serum (glucose concentration less than 0.5 μg/mL). FIG. 20 illustrates total intracellular ATP levels in CoQ10 deficient and normal lymphocytes measured using the luciferin-luciferase reaction. The levels of ATP shown in Table 1 are relative to the 100% value obtained for the CoQ10 deficient cells in FIG. 20.

NADH oxidase activity (%) ([1]; 1 μM)	Structure (SMILES)	viability at 0.1 µM (cultured FRDA cells) [%]	viability at 0.5 µM (cultured FRDA cells) [%]	viability at 2.5 µM (cultured FRDA cells) [%]	further results
–	CCCCCCCCCCc1nc(N(C)C)nc(C)c1O [drawing 128]	54.5 ± 3.3	84 ± 3.6	76.3 ± 5	–
62	CCCCCCCCCCCCCCCCc1nc(N(C)C)nc(C)c1O [drawing 139]	–	–	–	NADH oxidase activity (%) ([1]; 2.5 μM): 62%; NADH oxidase activity (%) ([1]; 5 μM): 62%; NADH oxidase activity (%) ([1]; 10 μM): 62%
–	COc1nc(N(C)C)nc(CCCCCCCCCCO)c1O [drawing 125]	55.6 ± 5.7	80 ± 4	78.3 ± 7.5	–
85	CCCCCc1nc(N(C)C)nc(C)c1O [drawing 132]	–	–	–	–
50	Cc1nc2c(c(CC[C@](C)(O)CCC[C@H](C)CCC[C@H](C)CCCC(C)C)c1O)CCN2C [drawing 136]	–	–	–	NADH oxidase activity (%) ([1]; 2.5 μM): 50%; NADH oxidase activity (%) ([1]; 10 μM): 15%
–	Cc1nc(N(C)C)nc(CCCCCCCCCCO)c1O [drawing 123]	63.6 ± 8.4	83.5 ± 0.7	82.7 ± 8.1	–
90	CCCCCCCCCCCCCCCCc1nc(N(C)C)nc(OC)c1O [drawing 140]	–	–	–	NADH oxidase activity (%) ([1]; 2.5 μM): 70%; NADH oxidase activity (%) ([1]; 5 μM): 70%; NADH oxidase activity (%) ([1]; 10 μM): 70%
–	CCCCCc1nc(N(C)C)nc(C)c1O [drawing 127]	46 ± 3.5	78.7 ± 4	81.3 ± 5.1	–
–	COc1cc(N(C)C)nc(CCCCCCCCCCO)c1O	33 ± 4.2	28.3 ± 2.1	29.5 ± 2.1	–
–	CCCCCCCCCCCCCCCCc1nc(N(C)C)nc(C)c1O [drawing 129]	61.3 ± 2.9	84.4 ± 3.4	88 ± 1	–
–	CCCCCc1nc(N(C)C)nc(C)c1O [drawing 118]	–	–	–	Total ATP concentration (% of control) ([2]; 5 μM): 109.3 ± 2.3 % of control; Total ATP concentration (% of control) ([2]; 10 μM): 111.1 ± 1.5 % of control; Total ATP concentration (% of control) ([2]; 25 μM): 105.6 ± 2.4 % of control
40	CCCCCCCCCCc1nc(N(C)C)nc(C)c1O [drawing 133]	–	–	–	IC50 ([1]; beef heart SMP): 829 nM
–	Cc1cc(N(C)C)nc(CCCCCCCCCCO)c1O [drawing 124]	54 ± 5.2	76.5 ± 2.1	81.7 ± 5	–
